Results: publication PMC7815808, “Enzyme and lateral flow monoclonal antibody-based immunoassays to simultaneously determine spirotetramat and spirotetramat-enol in foodstuffs” (Scientific Reports, 2021)

How the values were obtained:
[1] = set-up: method as in PMID 23436572; settings: cited from earlier work
[2] = Spirotetramat hydrolysis study by direct cELISA; type: physicochemical
Experimental: (§1) In order to simultaneously quantify SP and SP-enol contents in a sample, an in situ procedure for treating the sample with alkaline solution in order to hydrolyse SP into SP-enol was assessed. SP and SP-enol standard solutions were prepared in MilliQ water and diluted fivefold with 40 mM NaOH. The mixtures were incubated 10 min at room temperature and diluted twofold with dilution buffer (200 mM Tris·HCl buffer, pH 8.0, containing 280 mM NaCl). For the competitive step, enzyme tracer solutions were prepared in TBS-T (100 mM Tris·HCl buffer, pH 8.0, containing 140 mM NaCl and 0.05% (v/v) Tween-20). As shown in the inset of Table 2, the obtained standard curves of SP-enol and hydrolysed SP were almost identical. This hydrolysis procedure was validated by HPLC‒MS/MS. SP and SP-enol aqueous solutions (50 µg/mL) were treated with NaOH and, 10 min later, the pH was lowered as previously described. Then, 10 µL of hydrolysed and diluted sample was transferred into 990 µL of acetonitrile and dried with anhydrous MgSO4. Controls without the hydrolysis step were also evaluated. Finally, the contents of SP, SP-enol, SP-keto, and SP-mono in the organic extracts were quantified (Table 2). […] Those samples were also analysed with the studied direct cELISA by running SP-enol standard solutions that had been incubated in NaOH and diluted with dilution buffer like the samples. […] Consequently, the developed hydrolysis procedure seemed to perform adequately for SP and SP-enol residue quantification as SP-enol equivalents.

mammals = tested on: mammals; set-up: method as in earlier work; settings: cited from earlier work
[3] = Spirotetramat hydrolysis study by HPLC‒MS/MS; type: physicochemical; set-up: content found by HPLC–MS/MS, sample treatment A / content found by HPLC–MS/MS, sample treatment B / content found by HPLC–MS/MS, sample treatment C / content found by HPLC–MS/MS, sample treatment D: unit not given beside the values
Experimental: as §1
SP, SP-enol, SP-keto, and SP-mono standard solutions were prepared by serial dilution in acetonitrile from 1 to 2500 μg/L in amber glass vials and kept at − 20 °C. The injection volume was 5 µL and the column temperature was 45 °C. The analysis was carried out using a C18 reverse phase column with a gradient of 0.2% (v/v) formic acid in water (A) and acetonitrile (B) as mobile phase at a flow rate of 0.3 mL/min. The elution profile was 0‒3 min, from 5% B to 95% B, 3.0‒3.5 min, 95% B, 3.5‒3.6 min, from 95% B to 5% B, and 3.6‒8 min, 5% B. Spectra were acquired in positive ionization multiple reaction monitoring mode with interchannel delay of 0.02 s.

mAb SPm#23 [4] = assay: Optimized direct cELISA (mAb SPm#23 with tracer HRP–SPh), SP-enol standard curve; type: binding, mouse; settings: direct cELISA, heterologous bioconjugate
Experimental: as §1
The sigmoidal inhibition curve obtained for SP-enol and the final assay conditions of the developed direct cELISA are provided in Table 3. […] The Amax value of the standard curve was near 1.0, the slope was − 1.4, and the background signal was negligible.
(§2) Microplates were precoated with GAM in order to immobilise the mAb. The competitive step was carried out by mixing the analyte solution or diluted sample with the enzyme tracer solution. Standard curves were built in borosilicate glass tubes from 0.03 to 30 nM by a threefold serial dilution of the most concentrated standard solution, and a blank (no analyte) was also run. Concentrated stock solutions of the analytes in anhydrous DMF were used to prepare the most concentrated standard solution—the DMF concentration was always lower than 0.1% (v/v). The complete immunoassay procedure can be found in the Supplementary Information file.
The absorbance of each microplate well was immediately read at 492 nm using a reference wavelength at 650 nm, and values were processed with KCJunior software from BioTek Instruments. The SigmaPlot Version 14.0 was used to fit the experimental values to a standard four-parameter logistic curve. Immunoassay sensitivity was estimated as the concentration of analyte affording a 50% decrease (IC50) of the maximum absorbance (Amax) obtained in the absence of analyte. The LOD of the assay was defined as the IC10 of the sigmoidal inhibition curve. The LOQ was experimentally determined as the lowest analyte concentration that provided accurate and precise results using fortified food samples. […]
(§3) 7. Direct competitive ELISA procedure
(§4) The same protocol previously described for this format was applied.7 Briefly, plates were coated with 100 µL per well of 1 µg/mL GAM solution in carbonate‒bicarbonate buffer, pH 9.6, by overnight incubation at 4 °C. Wells were washed four times with washing solution (150 mM NaCl with 0.05% (v/v) Tween-20) after each incubation step. […]

mAbs to SP and SP-enol = assay: Direct cELISA, binding of analytes and other pesticides by the generated mAbs; set-up: species or system mouse; settings: homologous tracer, all mAbs; read-out: IC50 values with the homologous tracer
Source text: Six mouse mAbs were obtained; three were from immunogen BSA‒SPm—named SPm#23, SPm#25, and SPm#216—and three from conjugate BSA‒SPo—named SPo#227, SPo#237, and SPo#243. These antibodies contained κ light chains and were of the IgG1 isotype, except mAb SPm#25 which was IgG2a. The affinity to SP and SP-enol was studied by checkerboard cELISA in the capture antibody-coated direct format, using homologous and heterologous enzyme tracers (with the same or different hapten, respectively, than the immunizing conjugate). SP and SP-enol standards were prepared in PBS (10 mM phosphate buffer, pH 7.4, with 140 mM NaCl) and tracer solutions for the competitive step were prepared in PBS-T (PBS containing 0.05% (v/v) Tween-20). […] Tracers with linker site heterologies were not bound by the antibodies. The only exception was mAb SPm#23 which did recognize the heterologous HRP‒SPh conjugate. For this antibody, the spacer arm of hapten SPh was located at a more proximal site than that of hapten […]. The lowest IC50 value with the homologous tracer was around 3 nM for SP-enol whereas binding to SP was moderate (IC50 values were higher than 30 nM).
(§5) Concerning specificity, the two assayed immunogens (BSA‒SPm and BSA‒SPo) afforded equivalent results. […] Cross-reactivity with the main SP metabolites was studied with antibody SPm#23.
as §2
(§6) Table S1. Specificity of the
as §3
as §4, with “step. Then, 100 µL per well of specific mAb solution in PBS-T was added and plates were incubated at room temperature during 1 h. The competitive reaction was carried out by adding 50 µL per well of analyte solution or diluted sample and 50 µL per well of tracer” for “step.”
(§7) enzyme substrate solution (2 mg/mL o-phenylendiamine and 0.012% (v/v) H2O2 in 25 mM sodium citrate and 62 mM sodium phosphate buffer, pH 5.4). Ten minutes later, the enzyme reaction was stopped by adding 100 µL per well of 1 M H2SO4.
8. Influence of pH and ionic strength […]
(§8) 7 E. Ceballos-Alcantarilla, D. López-Puertollano, C. Agulló, A. Abad-Fuentes, A. Abad-Somovilla, J. V. Mercader.
Combined heterologies for monoclonal antibody-based immunoanalysis of fluxapyroxad. Analyst 143, 5718‒

mAb SPm#23 [5] = assay: Antibody specificity (cross-reactivity) of the selected mAb; type: binding, mouse; settings: cross-reactivity of the selected mAb, SP-enol = 100; n=3
Experimental: as §5, §2, §6, §3
as §4, with “step. Then, 100 µL per well of specific mAb solution in PBS-T was added and plates were incubated at room temperature during 1 h. The competitive reaction was carried out by adding 50 µL per well of analyte solution or diluted sample and 50 µL per well of tracer” for “step.”
as §7
8. Influence of pH and ionic strength
Figure S5. Influence of pH and ionic strength over the Amax and IC50 values of the spirotetramat-enol standard curve of the studied direct cELISA.
as §8
Combined heterologies for monoclonal antibody-based immunoanalysis of fluxapyroxad. Analyst 143, 5718‒ […]

## CCOC(=O)OC1=C(c2cc(C)ccc2C)C(=O)N[C@]12CC[C@@H](OC)CC2 [SP, ethyl cis-8-methoxy-2-oxo-3-(2,5-xylyl)-1-azaspiro[4.5]dec-3-en-4-yl carbonate]
[1]
  hydrolysis at basic pH values: quickly hydrolyses to form SP-enol
[2]; incubated in NaOH solution (samples A and C)
  recovery measured as SP-enol by direct cELISA: 85.0%
[2]; non-hydrolysed control solution (samples B and D)
  recovery measured as SP-enol by direct cELISA: could not be quantified
mammals
  eye irritation: can be an eye irritant
  skin-sensitization: may cause skin-sensitization
  toxicity in mammals: does not show severe toxicity
[3]; 40 mM NaOH, 10 min, room temperature, HPLC‒MS/MS
  fate on incubation in basic solution: completely hydrolysed into SP-enol
[3]; A, SP hydrolysed (40 mM NaOH, 10 min, room temperature)
  content found by HPLC–MS/MS, sample treatment A: 0.03
[3]; A, SP hydrolysed, HPLC–MS/MS
  Recovery (%), sample treatment A: 93.4%
[3]; B, SP without hydrolysis
  content found by HPLC–MS/MS, sample treatment B: 109.4
[3]; B, SP without hydrolysis, HPLC–MS/MS
  Recovery (%), sample treatment B: 88.8%
[3]; C, SP-enol hydrolysed (40 mM NaOH, 10 min, room temperature)
  content found by HPLC–MS/MS, sample treatment C: 0.02
[3]; D, SP-enol without hydrolysis
  content found by HPLC–MS/MS, sample treatment D: 0.00
mAb SPm#23 [4]
  IC50 value for the sum of spirotetramat and spirotetramat-enol: 0.1 ng/mL
mAbs to SP and SP-enol
  IC50: > 0.03 µM
mAb SPm#23 [5]
  CR (%): 11.8%
